# Literature values as cited in patent publication US20240225064A1, “METHOD FOR MASS-PRODUCING SWEETENER HAVING TASTE QUALITY SIMILAR TO THAT OF SUGAR AND HAVING D-ALLULOSE FUNCTIONALITY” (NATIONAL UNIVERSITY CORPORATION KAGAWA UNIVERSITY, priority 2021, published 2024).
# Like-named read-outs stand apart in the source and are kept apart here.
# Tests used:
# [1] = not given; remark: listed apart in the source
# [2] = content in sweetener
SMILES,sweetness degree (sweetness intensity) (assuming that the sweetness degree of sugar is 100),sweetness degree relative to sugar (of that of sugar),acute oral toxicity test [1],D-allulose content at which the function of suppressing rapid absorption of a saccharide appears [2] [mass %],sweetness of D-fructose relative to sucrose (at 40° C.),sweetness of D-fructose relative to sucrose (at high temperatures) [%]
O=C(CO)[C@H](O)[C@H](O)[C@H](O)CO [D-allulose],70,about 70%,"≥ 5,000 mg/kg",≥ 5,,
O=C(CO)[C@@H](O)[C@H](O)[C@H](O)CO [D-fructose],,,,,equal thereto,60
